One may read the IC50 as the concentration that inhibits the measured activity by half. The low end stands for inhibition by little substance, the high end for a need for much substance.

In US9481654B2, “Compositions and methods for inhibition of the JAK pathway” (Rigel Pharmaceuticals, Inc., priority 2006, dated 2016) one finds IC50 data, which are given here for 21 compounds.

Assay [1] concerns IL-4 stimulated CD23 upregulation in human Ramos B cells (JAK-1/JAK-3, Stat-6). The assay is described as follows: Assay for Ramos B-Cell Line Stimulated with IL-4 (CD23 upregulation, FACS). It counts as cell-based. Conditions: Table III Example 3. In a few lines:
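Flow cytometry of CD23 staining after 20-24 h IL-4 stimulation (50 units/mL final) of human Ramos B cells in RPMI with 5% serum. Cells, 5×10^4 per point, received compound or DMSO vehicle for 1 h at 37° C prior to stimulation.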

Assay [2] deals with IFNγ induced ICAM-1 (CD54) up-regulation in A549 lung epithelial cells (JAK/Stat pathway). Description: A549 Epithelial Line Stimulated with IFNγ (ICAM-1 surface expression, flow cytometry). The class given is cell-based, human. From the text: The activity of the compounds of the invention may additionally be characterized by assaying the effect of the 2,4-pyrimidinediamine compounds described herein on A549 lung epithelial cells and U937 cells. A549 lung epithelial cells and U937 cells up-regulate ICAM-1 (CD54) surface expression in response to a variety of different stimuli. Therefore, using ICAM-1 expression as readout, test compound effects on different signaling pathways can be assessed in the same cell type. Stimulation with IL-1β through the IL-1β receptor activates the TRAF6/NFκB pathway resulting in up-regulation of ICAM-1. IFNγ induces ICAM-1 up-regulation through activation of the JAK1/JAK2 pathway. The up-regulation of ICAM-1 can be quantified by flow cytometry across a compound dose curve and EC50 values are calculated. Exemplary assays of this type are described in greater detail in Examples 5 and 6.
A549 lung epithelial cells up-regulate ICAM-1 (CD54) surface expression in response to a variety of different stimuli. Therefore, using ICAM-1 expression as readout, compound effects on different signaling pathways can be assessed in the same cell type. IFNγ up-regulates ICAM-1 through activation of the JAK/Stat pathway. In this example, the up-regulation of ICAM-1 by IFNγ was assessed.
The A549 lung epithelial carcinoma cell line originated from the American Type Culture Collection. Routine culturing was with F12K media (Mediatech Inc., Lenexa, Kans., Cat. No. 10-025-CV) with 10% fetal bovine serum, 100 I.U. penicillin and […] streptomycin (complete F12k media). Cells were incubated in a humidified atmosphere of 5% CO2 at 37° C. Prior to use in the assay, A549 cells were washed with PBS and trypsinized (Mediatech Inc., Cat. No. 25-052-CI) to lift the cells. The trypsin cell suspension was neutralized with complete F12K media and centrifuged to pellet the cells. The cell pellet was resuspended in complete F12K media at a concentration of 2.0×10^5/mL. Cells were seeded at 20,000 per well, 100 μL total volume, in a flat bottom tissue culture plate and allowed to adhere overnight.
On day two, A549 cells were pre-incubated with a 2,4-pyrimidinediamine test compound or DMSO (control) (Sigma-Aldrich, St. Louis, Mo., Catalog No. D2650) for 1 hour. The cells were then stimulated with IFNγ (75 ng/mL) (Peprotech Inc., Rocky Hill, N.J., Cat. No. 300-02) and allowed to incubate for 24 hours. The final test compound dose range was 30 μM to 14 nM in 200 μL F12K media containing 5% FBS, 0.3% DMSO.
On day three, the cell media was removed and the cells were washed with 200 μL PBS (phosphate buffered saline). Each well was trypsinized to dissociate the cells, then neutralized by addition of 200 μL complete F12K media. Cells were pelleted and stained with an APC conjugated mouse anti-human ICAM-1 (CD54) (BD Pharmingen, San Diego, Calif., Catalog #559771) antibody for 20 minutes at 4° C. Cells were washed with ice cold FACS buffer (PBS+2% FBS) and surface ICAM-1 expression was analyzed by flow cytometry. Detection was performed using a BD LSR I System Flow Cytometer, purchased from BD Biosciences of San Jose, Calif. Events were gated for live scatter and the geometric mean was calculated (Becton-Dickinson CellQuest software version 3.3, Franklin Lakes, N.J.). Geometric means were plotted against the compound concentration to generate a dose response curve.
Background: Flow cytometry measures light scatter and fluorescence of single cells or particles in a stream.

Turning to `NS(=O)(=O)c1ccc(Nc2ncc(F)c(Nc3ccc(CNS(=O)(=O)C4CCCC4)cc3)n2)cc1` [Compound I-68, N2-(4-aminosulfonyl)phenyl-N4-(4-cyclopentylsulfonylaminomethyl)phenyl-5-fluoro-2,4-pyrimidinediamine], the IC50 in assay [1] came out at 94 nM; in assay [2] (Table III Example 5), 4.95 µM.

In the case of `Cc1ccc(Nc2ncc(C)c(Nc3ccc(CNS(=O)(=O)C4CC4)cc3)n2)cc1S(N)(=O)=O` [Compound I-47, N2-(3-aminosulfonyl-4-methyl)phenyl-N4-(4-cyclopropylsulfonylaminomethyl)phenyl-5-methyl-2,4-pyrimidinediamine], the IC50 in assay [1] was 28 nM; in assay [2] (Table III Example 5), 2.89 µM.

With `Cc1cnc(Nc2cccc(S(N)(=O)=O)c2)nc1Nc1cccc(CNS(=O)(=O)C2CC2)c1` [Compound I-51, N2-(3-aminosulfonyl)phenyl-N4-(3-cyclopropylsulfonylaminomethyl)phenyl-5-methyl-2,4-pyrimidinediamine], the IC50 in assay [1] came to 62.2 nM; in assay [2] (Table III Example 5) it was 2.8 µM.

In the case of `CNS(=O)(=O)c1cc(Nc2ncc(C)c(Nc3ccc(CNS(=O)(=O)C4CC4)cc3)n2)ccc1C` [Compound I-185, N4-(4-cyclopropylsulfonylaminomethyl)phenyl-5-methyl-N2-(4-methyl-3-methylaminosulfonyl)phenyl-2,4-pyrimidinediamine], the results for the IC50 in assay [1] and in assay [2] (Table III Example 5) were 22.5 nM and 4.1 µM, respectively.

`CCNS(=O)(=O)c1cccc(Nc2ncc(C)c(Nc3ccc(CNS(=O)(=O)C4CC4)cc3)n2)c1` [Compound I-176, N4-(4-cyclopropylsulfonylaminomethyl)phenyl-N2-(3-ethylaminosulfonyl)phenyl-5-methyl-2,4-pyrimidinediamine]: the values for the half-maximal inhibitory concentration (IC50) in assay [1] and in assay [2] (Table III Example 5) were 7.98 nM and 10.4 µM, respectively.

As to `NS(=O)(=O)c1cccc(Nc2ncc(F)c(Nc3ccc(CNS(=O)(=O)C4CCCC4)cc3)n2)c1` [Compound I-69, N2-(3-aminosulfonyl)phenyl-N4-(4-cyclopentylsulfonylaminomethyl)phenyl-5-fluoro-2,4-pyrimidinediamine], the IC50 in assay [1] came out at 51.5 nM; in assay [2] (Table III Example 5) it was 7.76 µM.

On to `Cc1cnc(Nc2ccc(S(N)(=O)=O)cc2)nc1Nc1cccc(CN(C)S(=O)(=O)C2CC2)c1` [Compound I-124, N2-(4-aminosulfonyl)phenyl-N4-[3-(N-cyclopropylsulfonyl-N-methyl)aminomethyl]phenyl-5-methyl-2,4-pyrimidinediamine], for which the IC50 worked out at 89.8 nM in assay [1] and 5.72 µM in assay [2] (Table III Example 5).

Take `Cc1cnc(Nc2cccc(S(=O)(=O)NC(C)C)c2)nc1Nc1ccc(CNS(=O)(=O)C2CC2)cc1` [Compound I-173, N4-(4-cyclopropylsulfonylaminomethyl)phenyl-N2-(3-isopropylaminosulfonyl)phenyl-5-methyl-2,4-pyrimidinediamine]: the IC50 is 34.8 nM in assay [1] and 1.88 µM in assay [2] (Table III Example 5).

On to `CNS(=O)(=O)c1cccc(Nc2ncc(C)c(Nc3cccc(CNS(=O)(=O)C4CC4)c3)n2)c1` [Compound I-162, N4-(3-cyclopropylsulfonylaminomethyl)phenyl-5-methyl-N2-(3-methylaminosulfonyl)phenyl-2,4-pyrimidinediamine], for which the IC50 in assay [1] was determined as 57.9 nM; in assay [2] (Table III Example 5), 1.92 µM.

Turning to `C#CCNS(=O)(=O)Cc1ccc(Nc2nc(Nc3cccc(S(N)(=O)=O)c3)ncc2F)cc1` [Compound I-4, N2-(3-Aminosulfonylphenyl)-5-fluoro-N4-[4-(prop-2-ynylaminosulfonylmethyl)phenyl]-2,4-pyrimidinediamine], the IC50 came to 141 nM in assay [1] (Homo sapiens, Ramos) and 18.2 µM in assay [2] (Homo sapiens, A549, Table III Example 5).

Take `Cc1ccc(Nc2ncc(C)c(Nc3ccc(CCNS(=O)(=O)C4CC4)cc3)n2)cc1S(N)(=O)=O` [Compound I-55, N2-(3-aminosulfonyl-4-methyl)phenyl-N4-[4-(2-cyclopropylsulfonylamino)ethyl]phenyl-5-methyl-2,4-pyrimidinediamine]: the figures for the IC50 in assay [1] and in assay [2] (Table III Example 5) were 78.8 nM and 3.88 µM, respectively.

As for `NS(=O)(=O)c1ccc(Nc2ncc(Cl)c(Nc3ccc(CNS(=O)(=O)C4CC4)cc3)n2)cc1` [Compound I-115, N2-(4-aminosulfonyl)phenyl-5-chloro-N4-(4-cyclopropylsulfonylaminomethyl)phenyl-2,4-pyrimidinediamine], the IC50 in assay [1] worked out at 23.3 nM; in assay [2] (Table III Example 5), 2.72 µM.

`Cc1cnc(Nc2cccc(S(N)(=O)=O)c2)nc1Nc1ccc(CNS(=O)(=O)CC(F)(F)F)cc1` [Compound I-97, N2-(3-aminosulfonyl)phenyl-5-methyl-N4-(4-trifluoroethylsulfonylaminomethyl)phenyl-2,4-pyrimidinediamine]: the IC50 in assay [1] turned out to be 34.7 nM; in assay [2] (Table III Example 5), 13.3 µM.

In the case of `Cc1ccc(Nc2ncc(F)c(Nc3ccc(CNS(=O)(=O)C4CCCCC4)cc3)n2)cc1S(N)(=O)=O` [Compound I-73, N2-(3-aminosulfonyl-4-methyl)phenyl-N4-(4-cyclohexylsulfonylaminomethyl)phenyl-5-fluoro-2,4-pyrimidinediamine], the IC50 in assay [1] came out at 89.9 nM; in assay [2] (Table III Example 5) it was 3.57 µM.

For `COCCNS(=O)(=O)c1cc(Nc2ncc(C)c(Nc3cccc(CNS(=O)(=O)C4CC4)c3)n2)ccc1C` [Compound I-210, N4-(3-cyclopropylsulfonylaminomethyl)phenyl-N2-[3-(2-methoxyethyl)aminosulfonyl-4-methyl]phenyl-5-methyl-2,4-pyrimidinediamine], the values for the IC50 in assay [1] and in assay [2] (Table III Example 5) were 128 nM and 2.47 µM, respectively.

For `CCS(=O)(=O)NCCc1ccc(Nc2nc(Nc3cccc(S(N)(=O)=O)c3)ncc2C)cc1` [Compound I-39, N2-(3-aminosulfonyl)phenyl-N4-[4-(2-ethylsulfonylamino)ethyl]phenyl-5-methyl-2,4-pyrimidinediamine], the results for the IC50 in assay [1] and in assay [2] (Table III Example 5) were 46.2 nM and 3.75 µM, respectively.

Consider `Cc1cnc(Nc2cc(S(N)(=O)=O)cc(S(N)(=O)=O)c2)nc1Nc1ccc(CNS(=O)(=O)C2CC2)cc1` [Compound I-84, N4-(4-cyclopropylsulfonylaminomethyl)phenyl-N2-(3,5-diaminosulfonyl)phenyl-5-methyl-2,4-pyrimidinediamine], for which the IC50 in assay [1] stood at 355 nM; in assay [2] (Table III Example 5) it was 9.53 µM.

Regarding `CCS(=O)(=O)NCc1ccc(Nc2nc(Nc3cccc(S(N)(=O)=O)c3)ncc2C)cc1` [Compound I-21, N2-(3-aminosulfonyl)phenyl-N4-(4-ethylsulfonylaminomethyl)phenyl-5-methyl-2,4-pyrimidinediamine], the IC50 was determined as 81.2 nM in assay [1] and 2.49 µM in assay [2] (Table III Example 5).

Take `Cc1ccc(Nc2ncc(C)c(Nc3ccc(CNS(=O)(=O)C4CC4)c(Cl)c3)n2)cc1S(N)(=O)=O` [Compound I-125, N2-(3-aminosulfonyl-4-methyl)phenyl-N4-(3-chloro-4-cyclopropylsulfonylaminomethyl)phenyl-5-methyl-2,4-pyrimidinediamine]: the IC50 in assay [1] came to 94.9 nM; in assay [2] (Table III Example 5) it was 4.03 µM.

Consider `CCS(=O)(=O)NCc1ccc(Nc2nc(Nc3ccc(C)c(S(N)(=O)=O)c3)ncc2F)cc1` [Compound I-10, N2-(3-aminosulfonyl-4-methyl)phenyl-N4-(4-ethylsulfonylaminomethyl)phenyl-5-fluoro-2,4-pyrimidinediamine], for which the half-inhibitory concentration (IC50) in assay [1] worked out at 94 nM; in assay [2] (Table III Example 5) it was 29.5 µM.

As for `CCNS(=O)(=O)c1ccc(Nc2ncc(C)c(Nc3ccc(CNS(=O)(=O)C4CC4)cc3)n2)cc1` [Compound I-175, N4-(4-cyclopropylsulfonylaminomethyl)phenyl-N2-(4-ethylaminosulfonyl)phenyl-5-methyl-2,4-pyrimidinediamine], the values for the IC50 in assay [1] and in assay [2] (Table III Example 5) were 46.1 nM and 2.37 µM, respectively.
